# Several values for one entry are separate records, joined by “and”; a condition that tells them apart may be missing. Equal values may be shown once. Toxic doses and inconclusive results are not listed.
# Test system: BDF1 mice, P388 leukemia ip, median survival T/C
# Test: NCI In Vivo Anticancer Drug Screen. Data for tumor model P388 Leukemia (intraperitoneal) in B6D2F1 (BDF1) mice
# Conditions: endpoint: median survival time, higher = longer survival
# In short: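 T/C = treated-group survival ÷ vehicle-control survival; tumour transplanted into mice before dosing.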
compound,measurement,setting,value
CC[C@]1(O)C[C@H]2CN(CCc3c([nH]c4ccccc34)[C@@](C(=O)OC)(c3cc4c(cc3OC)N(C=O)[C@H]3[C@@](O)(C(=O)OC)[C@H](OC(C)=O)[C@]5(CC)C=CCN6CC[C@]43[C@@H]65)C2)C1,T/C,"dose: 0.03 mg/kg/injection, schedule: Q01DX009 (ip), vehicle: water",86 % of control
same,T/C,"dose: 0.03 mg/kg/injection, schedule: Q01DX010 (ip), vehicle: saline",163 % of control and 172 % of control (2×)
same,T/C,"dose: 0.06 mg/kg/injection, schedule: Q04DX003 (ip), vehicle: water",90 % of control
same,T/C,"dose: 0.08 mg/kg/injection, schedule: Q01DX009 (ip), vehicle: saline",172 % of control
same,T/C,"dose: 0.12 mg/kg/injection, schedule: Q01DX009 (ip), vehicle: saline",300 % of control
same,T/C,"dose: 0.13 mg/kg/injection, schedule: Q01DX010 (ip), vehicle: saline",168 % of control
same,T/C,"dose: 0.2 mg/kg/injection, schedule: Q01DX009 (ip), vehicle: saline",231 % of control and 277 % of control
same,T/C,"dose: 0.2 mg/kg/injection, schedule: Q04DX002 (ip), vehicle: saline",163 % of control
same,T/C,"dose: 0.22 mg/kg/injection, schedule: Q01DX009 (ip), vehicle: clinical formulation",245 % of control
same,T/C,"dose: 0.25 mg/kg/injection, schedule: Q01DX009 (ip), vehicle: saline",275 % of control
same,T/C,"dose: 0.25 mg/kg/injection, schedule: Q01DX010 (ip), vehicle: saline",240 % of control and 254 % of control and 163 % of control
same,T/C,"dose: 0.3 mg/kg/injection, schedule: Q01DX009 (ip), vehicle: saline",289 % of control and 500 % of control
same,T/C,"dose: 0.3 mg/kg/injection, schedule: Q04DX003 (ip), vehicle: saline",186 % of control
same,T/C,"dose: 0.45 mg/kg/injection, schedule: Q01DX009 (ip), vehicle: saline",278 % of control and 336 % of control
same,T/C,"dose: 0.48 mg/kg/injection, schedule: Q04DX003 (ip), vehicle: saline",232 % of control and 150 % of control
same,T/C,"dose: 0.5 mg/kg/injection, schedule: Q01DX009 (ip), vehicle: saline",90 % of control
same,T/C,"dose: 0.5 mg/kg/injection, schedule: Q01DX010 (ip), vehicle: saline",86 % of control and 90 % of control
same,T/C,"dose: 0.5 mg/kg/injection, schedule: Q04DX003 (ip), vehicle: water",177 % of control
same,T/C,"dose: 0.53 mg/kg/injection, schedule: Q04DX003 (ip), vehicle: saline",183 % of control
same,T/C,"dose: 0.8 mg/kg/injection, schedule: Q04DX003 (ip), vehicle: clinical formulation",236 % of control
same,T/C,"dose: 1.0 mg/kg/injection, schedule: Q01DX001 (ip), vehicle: water",153 % of control
same,T/C,"dose: 1.0 mg/kg/injection, schedule: Q04DX003 (ip), vehicle: water",227 % of control
same,T/C,"dose: 1.0 mg/kg/injection, schedule: Q04DX004 (ip), vehicle: saline",233 % of control
same,T/C,"dose: 1.1 mg/kg/injection, schedule: Q04DX003 (ip), vehicle: saline",532 % of control and 180 % of control
same,T/C,"dose: 1.2 mg/kg/injection, schedule: Q04DX003 (ip), vehicle: clinical formulation",240 % of control
same,T/C,"dose: 1.3 mg/kg/injection, schedule: Q04DX003 (ip), vehicle: saline",250 % of control
same,T/C,"dose: 1.5 mg/kg/injection, schedule: Q04DX004 (ip), vehicle: saline",252 % of control
same,T/C,"dose: 1.56 mg/kg/injection, schedule: Q04DX002 (ip), vehicle: saline",90 % of control
same,T/C,"dose: 1.65 mg/kg/injection, schedule: Q04DX003 (ip), vehicle: saline",532 % of control
same,T/C,"dose: 1.8 mg/kg/injection, schedule: Q04DX003 (ip), vehicle: clinical formulation",113 % of control
same,T/C,"dose: 2.0 mg/kg/injection, schedule: Q01DX001 (ip), vehicle: water",168 % of control
same,T/C,"dose: 2.0 mg/kg/injection, schedule: Q04DX003 (ip), vehicle: saline",116 % of control
same,T/C,"dose: 2.47 mg/kg/injection, schedule: Q04DX003 (ip), vehicle: saline",166 % of control
same,T/C,"dose: 4.0 mg/kg/injection, schedule: Q01DX001 (ip), vehicle: saline",235 % of control and 163 % of control
same,T/C,"dose: 4.0 mg/kg/injection, schedule: Q04DX003 (ip), vehicle: water",111 % of control
same,T/C,"dose: 15.6 micrograms/kg/injection, schedule: Q03HX008 (ip), vehicle: clinical formulation",157 % of control
same,T/C,"dose: 15.6 micrograms/kg/injection, schedule: Q03HX016 (ip), vehicle: clinical formulation",185 % of control
same,T/C,"dose: 31.2 micrograms/kg/injection, schedule: Q03HX008 (ip), vehicle: clinical formulation",185 % of control
same,T/C,"dose: 31.2 micrograms/kg/injection, schedule: Q03HX024 (ip), vehicle: clinical formulation",233 % of control
same,T/C,"dose: 62.0 micrograms/kg/injection, schedule: Q03HX024 (ip), vehicle: saline",255 % of control
same,T/C,"dose: 62.5 micrograms/kg/injection, schedule: Q03HX016 (ip), vehicle: clinical formulation",257 % of control
same,T/C,"dose: 62.5 micrograms/kg/injection, schedule: Q04DX003 (ip), vehicle: clinical formulation",166 % of control
same,T/C,"dose: 125.0 micrograms/kg/injection, schedule: Q03HX016 (ip), vehicle: clinical formulation",314 % of control
same,T/C,"dose: 125.0 micrograms/kg/injection, schedule: Q03HX024 (ip), vehicle: saline",370 % of control
same,T/C,"dose: 125.0 micrograms/kg/injection, schedule: Q04DX003 (ip), vehicle: clinical formulation",180 % of control
same,T/C,"dose: 125.0 micrograms/kg/injection, schedule: Q08DX002 (ip), vehicle: clinical formulation",171 % of control
same,T/C,"dose: 250.0 micrograms/kg/injection, schedule: Q01DX001 (ip), vehicle: clinical formulation",161 % of control
same,T/C,"dose: 250.0 micrograms/kg/injection, schedule: Q01DX009 (ip), vehicle: clinical formulation",242 % of control
same,T/C,"dose: 250.0 micrograms/kg/injection, schedule: Q03HX008 (ip), vehicle: clinical formulation",247 % of control
same,T/C,"dose: 250.0 micrograms/kg/injection, schedule: Q03HX024 (ip), vehicle: saline",90 % of control
same,T/C,"dose: 250.0 micrograms/kg/injection, schedule: Q08DX002 (ip), vehicle: clinical formulation",176 % of control
same,T/C,"dose: 360.0 micrograms/kg/injection, schedule: Q04DX003 (ip), vehicle: saline",182 % of control
same,T/C,"dose: 432.0 micrograms/kg/injection, schedule: Q04DX003 (ip), vehicle: saline",249 % of control
same,T/C,"dose: 500.0 micrograms/kg/injection, schedule: Q01DX001 (ip), vehicle: clinical formulation",152 % of control
same,T/C,"dose: 500.0 micrograms/kg/injection, schedule: Q03HX016 (ip), vehicle: clinical formulation",123 % of control
same,T/C,"dose: 500.0 micrograms/kg/injection, schedule: Q04DX003 (ip), vehicle: clinical formulation",228 % of control
same,T/C,"dose: 500.0 micrograms/kg/injection, schedule: Q04DX003 (ip), vehicle: saline",248 % of control
same,T/C,"dose: 500.0 micrograms/kg/injection, schedule: Q08DX002 (ip), vehicle: clinical formulation",180 % of control
same,T/C,"dose: 540.0 micrograms/kg/injection, schedule: Q04DX003 (ip), vehicle: saline",240 % of control and 272 % of control
same,T/C,"dose: 600.0 micrograms/kg/injection, schedule: Q01DX009 (ip), vehicle: saline",120 % of control
same,T/C,"dose: 600.0 micrograms/kg/injection, schedule: Q04DX003 (ip), vehicle: saline",250 % of control and 182 % of control
same,T/C,"dose: 648.0 micrograms/kg/injection, schedule: Q04DX003 (ip), vehicle: saline",254 % of control
same,T/C,"dose: 720.0 micrograms/kg/injection, schedule: Q04DX003 (ip), vehicle: saline",225 % of control and 291 % of control
same,T/C,"dose: 900.0 micrograms/kg/injection, schedule: Q04DX003 (ip), vehicle: saline",280 % of control and 322 % of control
same,T/C,"dose: 1000.0 micrograms/kg/injection, schedule: Q04DX003 (ip), vehicle: clinical formulation",571 % of control
same,T/C,"dose: 1000.0 micrograms/kg/injection, schedule: Q08DX002 (ip), vehicle: clinical formulation",228 % of control
same,T/C,"dose: 1080.0 micrograms/kg/injection, schedule: Q04DX003 (ip), vehicle: saline",292 % of control
same,T/C,"dose: 1200.0 micrograms/kg/injection, schedule: Q04DX003 (ip), vehicle: saline",225 % of control and 116 % of control
same,T/C,"dose: 1500.0 micrograms/kg/injection, schedule: Q04DX003 (ip), vehicle: saline",278 % of control and 320 % of control
same,T/C,"dose: 1800.0 micrograms/kg/injection, schedule: Q04DX003 (ip), vehicle: saline",294 % of control
same,T/C,"dose: 2000.0 micrograms/kg/injection, schedule: Q04DX003 (ip), vehicle: clinical formulation",95 % of control
same,T/C,"dose: 2000.0 micrograms/kg/injection, schedule: Q08DX002 (ip), vehicle: clinical formulation",300 % of control
same,T/C,"dose: 4000.0 micrograms/kg/injection, schedule: Q01DX001 (ip), vehicle: clinical formulation",233 % of control
same,T/C,"dose: 4000.0 micrograms/kg/injection, schedule: Q08DX002 (ip), vehicle: clinical formulation",238 % of control
